According to US7683097B2, “Topoisomerase inhibitors” (Propharmacon Inc., priority 2004, dated 2010):
pIC50: −log10 of the molar value. Read-outs that look alike come from different tables or passages of the source.

Experiments:
MES-SA/Dx5 = experiment: Cell proliferation assay, Uterine MES-SA/Dx5; assay type: cell-based; details: Homo sapiens, read-out: GI50 or IC50, Uterine MES-SA/Dx5
Description: (§1) The compounds listed in Table IV were prepared using the procedures outlined in the above Examples.

NCI-H460 [1] = experiment: Cell proliferation assay, NSC Lung Cancer NCI-H460; assay type: cell-based; details: Homo sapiens, read-out: GI50 or IC50, NSC Lung Cancer NCI-H460
Description: (§2) The compounds listed in Table III were prepared using the procedures outlined in the above Examples.

SF-268 = experiment: Cell proliferation assay, CNS Cancer SF-268; assay type: cell-based; details: Homo sapiens, read-out: GI50 or IC50, CNS Cancer SF-268
Description: as §2

PC-3 = experiment: Cell proliferation assay, Prostate Cancer PC-3; assay type: cell-based; details: Homo sapiens, read-out: GI50 or IC50, Prostate Cancer PC-3
Description: as §1

MCF-7 [2] = experiment: Cell proliferation assay (panel), Breast Cancer MCF-7; assay type: cell-based; details: Homo sapiens, MCF7; read-out: GI50 or IC50, Breast Cancer MCF-7
Description: as §1

HL-60 = experiment: Cell proliferation assay, Leukemia HL-60; assay type: cell-based; details: Homo sapiens, read-out: GI50 or IC50, Leukemia HL-60
Description: as §2

H69-AR (MDR) = experiment: Cell proliferation assay, SC Lung Cancer H69-AR (MDR); assay type: cell-based; details: Homo sapiens, H69AR; read-out: GI50 or IC50, SC Lung Cancer H69-AR (MDR)
Description: as §2

SK-MEL-2 = experiment: Cell proliferation assay, Melanoma SK-MEL-2; assay type: cell-based; details: Homo sapiens, read-out: GI50 or IC50, Melanoma SK-MEL-2
Description: as §1

HL60-MX1 (MDR) = experiment: Cell proliferation assay, Leukemia HL60-MX1 (MDR); assay type: cell-based; details: read-out: GI50 or IC50, Leukemia HL60-MX1 (MDR)
Description: as §2

OVCAR-3 = experiment: Cell proliferation assay, Ovarian Cancer OVCAR-3; assay type: cell-based; details: Homo sapiens, read-out: GI50 or IC50, Ovarian Cancer OVCAR-3
Description: as §1

HCT-15 = experiment: Cell proliferation assay, Colon Cancer HCT-15; assay type: cell-based; details: Homo sapiens, read-out: GI50 or IC50, Colon Cancer HCT-15
Description: as §2

UO-31 = experiment: Cell proliferation assay, Renal Cancer UO-31; assay type: cell-based; details: Homo sapiens, read-out: GI50 or IC50, Renal Cancer UO-31
Description: as §1

NCI-ADR = experiment: Cell proliferation assay, Breast Cancer NCI-ADR; assay type: cell-based; details: Homo sapiens, NCI/ADR-RES; read-out: GI50 or IC50, Breast Cancer NCI-ADR
Description: as §1

MCF-7 [3] = experiment: Cell proliferation assay, MCF-7; assay type: cell-based; details: Homo sapiens, MCF7; 48 hrs exposure, Alamar Blue, FIG. 6; no shift between MCF-7 and MCF-7/ADR; read-out: approximate IC50, cell proliferation
Description: (§3) The MCF-7 cell line, the MDR cell line, and the MCF-7/ADR cell line were used. Alamar Blue™ was used to quantitate cell viability.
The compounds listed in Table II were prepared using the procedures outlined in the above Examples.

human Topo IIα = target: T1, human Topo IIα (Homo sapiens, UniProt P11388); experiment: Topo IIα decatenation inhibition assay (kDNA, agarose gel); assay type: biochemical; details: sample gel, FIG. 2; kDNA substrate
T1 construct: purchased Topogen Inc. Columbus, Ohio
Description: When present, high molecular weight kDNA has not migrated from the loading well.
The enzyme assays used for determining Topo IIα inhibition was either the ATP-dependent decatenation of high molecular weight kDNA (kinetoplast) as substrate or the relaxation of supercoiled pBR322 each incorporating human Topo IIα (Topogen Inc. Columbus, Ohio) and following literature protocols (Fortune, J. M. et al., J. Biol. Chem., 273(28), 17643-50 1998; Muller, M. T. et al., Biochemistry, 27(22), 8369-79, 1988). The 2.5 Kd mini-circle product derived from the catenated substrate is resolved on an agarose gel with ethidium bromide staining after electrophoresis. Likewise, the relaxed form of pBR322 is resolved from the faster moving supercoiled form during electrophoresis.

Topo I = target: T2, Topo I (Homo sapiens, UniProt P11387); experiment: Topo I covalent complex stabilization test; assay type: biochemical; details: similar tests as for Topo IIα
T2 sequence (P11387 1-765): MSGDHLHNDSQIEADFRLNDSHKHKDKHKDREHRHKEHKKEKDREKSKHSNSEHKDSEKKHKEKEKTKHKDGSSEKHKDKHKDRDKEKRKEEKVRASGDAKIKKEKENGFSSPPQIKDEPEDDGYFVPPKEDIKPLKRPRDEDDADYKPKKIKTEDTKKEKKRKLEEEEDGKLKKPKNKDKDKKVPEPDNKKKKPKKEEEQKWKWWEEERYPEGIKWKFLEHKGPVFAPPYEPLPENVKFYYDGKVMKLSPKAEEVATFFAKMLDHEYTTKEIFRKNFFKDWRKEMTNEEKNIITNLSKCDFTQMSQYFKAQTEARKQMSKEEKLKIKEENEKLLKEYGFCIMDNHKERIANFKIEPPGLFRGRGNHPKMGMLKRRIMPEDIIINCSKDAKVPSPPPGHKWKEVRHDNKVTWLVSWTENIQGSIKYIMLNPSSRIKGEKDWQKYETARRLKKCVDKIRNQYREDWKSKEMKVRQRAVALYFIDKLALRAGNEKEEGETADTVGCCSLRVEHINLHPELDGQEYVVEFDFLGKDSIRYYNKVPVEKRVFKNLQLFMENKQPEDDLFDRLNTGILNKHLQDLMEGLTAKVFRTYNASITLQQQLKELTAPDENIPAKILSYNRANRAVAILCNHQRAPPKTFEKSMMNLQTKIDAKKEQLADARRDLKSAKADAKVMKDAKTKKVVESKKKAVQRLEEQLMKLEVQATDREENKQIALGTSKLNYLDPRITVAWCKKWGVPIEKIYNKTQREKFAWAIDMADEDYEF
Excerpt: (§4) To determine if the compound 320 stabilizes the TopoIIα-DNA covalent complex, cleavage intermediates are trapped by the addition of SDS to the reaction (Wilson Byl, J. A., et al., Biochemistry, 40, 712-718, 2001). After proteinase K digestion to digest any covalently bound Topo, the products are electrophoresed and stained with EtBr. The appearance of an additional band that is a linear form of the 2.5 Kb minicircle product is indicative of a compound's ability to stabilize the covalent complex.

[4] = target: TopoIIα-DNA covalent complex (Homo sapiens, UniProt P11388); experiment: Topo IIα DNA covalent complex stabilization assay; assay type: biochemical; details: SDS trapping, proteinase K, FIG. 5
Excerpt: as §4

NCI-H460 [5] = experiment: NCI-H460 human xenograft study in nude mice; details: i.v., 320 25 mg/Kg days 1-5, etoposide 35 mg/Kg days 7, 10, 14; for anti-tumor activity with respect to final tumor volume: doxorubicin 5 mg/Kg days 7 and 14, day 28
Description: (§6) An acute toxicological study was performed for 320 prior to the xenograft study. Two groups (n=3) of female CD-1 mice were injected intraperitoneally (i.p.) with either 10 or 100 mg/Kg of 320 dissolved in 5% DMSO, 10% PEG400. […] A second MTD study was done by the intravascular (i.v.) route using 4 groups of CD-1 mice for the following: vehicle, 3, 10 and 30 mg/Kg injections which were to be given daily for days 1-5 and study duration of two weeks, at which point survivors would be euthanised.
All injections were by the i.v. route; groups were 5 NCR nu/nu mice. The cell line NCI-H460 was used to produce the tumors that appeared by day 7. […] All survivors to day 28 were euthanised at this time and tumor volumes measured.

[6] = Acute toxicological study, i.p.; assay type: in vivo; details: female CD-1 mice, n=3, seven days
Description: as §6

MCF-7/ADR = experiment: Cell proliferation assay, MDR line MCF-7/ADR; assay type: cell-based, human; details: 48 hrs exposure; less potent in MCF-7/ADR
Excerpt: as §3

[7] = mouse, in vivo, iv
Description: as §6

calf thymus DNA = experiment: DNA-intercalator displacement assay (EtBr displacement); assay type: binding; details: FIG. 4
Excerpt: The curve labeled “Hoechst” corresponds to Hoechst 33258. Controls are: 1) no EtBr (min. fluorescence) and 2) no compound (max. fluorescence).
(§5) Gel retardation assays were done on 320 and other biaryl/terphenyl acid compounds, to test for electrophoretic mobility shifts due to the presence of a substance that directly binds DNA.

pBR322 plasmid = experiment: Gel retardation assay (electrophoretic mobility shift); assay type: binding
Excerpt: as §5

T1 sequence (P11388 whole entry): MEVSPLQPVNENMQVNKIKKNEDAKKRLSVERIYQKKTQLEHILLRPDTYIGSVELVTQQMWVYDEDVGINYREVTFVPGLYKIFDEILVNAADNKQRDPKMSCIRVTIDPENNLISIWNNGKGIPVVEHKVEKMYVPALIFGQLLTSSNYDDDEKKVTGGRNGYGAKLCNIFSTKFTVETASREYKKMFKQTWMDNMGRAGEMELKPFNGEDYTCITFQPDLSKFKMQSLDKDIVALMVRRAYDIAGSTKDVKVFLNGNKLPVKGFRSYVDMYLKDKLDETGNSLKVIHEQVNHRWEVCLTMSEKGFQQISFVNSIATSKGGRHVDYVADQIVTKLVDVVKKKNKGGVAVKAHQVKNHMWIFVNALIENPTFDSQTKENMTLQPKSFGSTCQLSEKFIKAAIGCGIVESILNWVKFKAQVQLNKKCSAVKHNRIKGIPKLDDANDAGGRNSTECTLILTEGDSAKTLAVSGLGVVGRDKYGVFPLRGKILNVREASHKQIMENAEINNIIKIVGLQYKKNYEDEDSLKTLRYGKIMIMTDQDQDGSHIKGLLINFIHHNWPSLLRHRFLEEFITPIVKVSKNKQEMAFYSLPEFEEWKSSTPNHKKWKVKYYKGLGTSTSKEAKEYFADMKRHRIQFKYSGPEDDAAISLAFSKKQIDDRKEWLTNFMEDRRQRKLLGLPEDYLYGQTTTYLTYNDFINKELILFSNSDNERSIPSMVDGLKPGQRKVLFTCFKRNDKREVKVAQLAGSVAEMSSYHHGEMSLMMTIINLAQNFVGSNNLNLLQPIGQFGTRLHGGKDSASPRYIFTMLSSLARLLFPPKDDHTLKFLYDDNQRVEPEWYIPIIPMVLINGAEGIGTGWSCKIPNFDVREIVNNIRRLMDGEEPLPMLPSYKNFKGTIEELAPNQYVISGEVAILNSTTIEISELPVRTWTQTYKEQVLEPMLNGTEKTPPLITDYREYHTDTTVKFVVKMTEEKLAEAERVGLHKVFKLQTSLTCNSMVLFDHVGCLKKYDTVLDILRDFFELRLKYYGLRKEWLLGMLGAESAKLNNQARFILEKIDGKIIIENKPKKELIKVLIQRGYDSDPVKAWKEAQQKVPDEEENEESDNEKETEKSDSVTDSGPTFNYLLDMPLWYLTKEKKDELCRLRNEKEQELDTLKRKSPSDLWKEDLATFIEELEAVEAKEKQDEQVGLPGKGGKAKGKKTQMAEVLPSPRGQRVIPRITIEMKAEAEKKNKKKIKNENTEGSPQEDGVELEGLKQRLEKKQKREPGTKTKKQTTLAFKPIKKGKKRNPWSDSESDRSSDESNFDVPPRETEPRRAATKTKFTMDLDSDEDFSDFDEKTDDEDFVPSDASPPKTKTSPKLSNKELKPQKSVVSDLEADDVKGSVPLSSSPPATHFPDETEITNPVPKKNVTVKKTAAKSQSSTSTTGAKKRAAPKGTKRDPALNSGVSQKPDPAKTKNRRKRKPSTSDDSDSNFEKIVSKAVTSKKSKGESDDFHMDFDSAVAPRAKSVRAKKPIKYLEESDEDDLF
Chain of TopoIIα-DNA covalent complex (P11388 whole entry, one chain of several): as the sequence (P11388 whole entry) above

pIC50 (NCI-H460 [1]) | pIC50 (SF-268) | pIC50 (PC-3) | pIC50 (MCF-7 [2]) | pIC50 (HL-60) | pIC50 (H69-AR (MDR)) | pIC50 (SK-MEL-2) | pIC50 (HL60-MX1 (MDR)) | pIC50 (OVCAR-3) | pIC50 (HCT-15) | pIC50 (UO-31) | pIC50 (NCI-ADR) | Compound | pIC50 (MES-SA/Dx5) | anti-tumor activity with respect to final tumor volume (NCI-H460 [5]) | further results
4.60 to 6.00 | 4.60 to 6.00 | 4.60 to 6.00 | 4.60 to 6.00 | 4.60 to 6.00 | ≥ 6.00 | < 4.60 | ≥ 6.00 | < 4.60 | 4.60 to 6.00 | 4.60 to 6.00 | ≥ 6.00 | O=C(Nc1ccncn1)c1ccc(Cl)c(-c2ccc(-c3ccccc3)cc2)c1 [Compound 37, 6-Chloro-[1,1′;4′,1″]terphenyl-3-carboxylic acid pyrimidin-4-ylamide] | ≥ 6.00 |  | 
4.60 to 6.00 | 4.60 to 6.00 | 4.60 to 6.00 | 4.60 to 6.00 | 4.60 to 6.00 | ≥ 6.00 | 4.60 to 6.00 | ≥ 6.00 | 4.60 to 6.00 | 4.60 to 6.00 | 4.60 to 6.00 | ≥ 6.00 | O=C(NC1CCNCC1)c1ccc(Cl)c(-c2ccc(-c3ccccc3)cc2)c1 [Compound 43, 6-Chloro-[1,1′;4′,1″]terphenyl-3-carboxylic acid piperidin-4-ylamide] | ≥ 6.00 |  | 
4.60 to 6.00 | 4.60 to 6.00 | 4.60 to 6.00 | 4.60 to 6.00 | 4.60 to 6.00 | 4.60 to 6.00 | 4.60 to 6.00 | 4.60 to 6.00 | 4.60 to 6.00 | 4.60 to 6.00 | 4.60 to 6.00 | 4.60 to 6.00 | CN(C)CCN(C(=O)c1ccc(Cl)c(-c2ccc(-c3ccccc3)cc2)c1)c1cccnc1 [Compound 52, 6-Chloro-[1,1′;4′,1″]terphenyl-3-carboxylic acid (2-dimethylamino-ethyl)-pyridin-3-yl-amide] | ≥ 6.00 |  | 
4.60 to 6.00 | 4.60 to 6.00 | 4.60 to 6.00 | 4.60 to 6.00 | 4.60 to 6.00 | ≥ 6.00 | 4.60 to 6.00 | 4.60 to 6.00 | 4.60 to 6.00 | 4.60 to 6.00 | 4.60 to 6.00 | ≥ 6.00 | O=C(NCC1CCCO1)c1ccc(Cl)c(-c2ccc(-c3ccccc3)cc2)c1 (stereo not shown) [Compound 58, 6-Chloro-[1,1′;4′,1″]terphenyl-3-carboxylic acid (tetrahydro-furan-2-ylmethyl)-amide] | ≥ 6.00 |  | 
 |  |  |  |  |  |  |  |  |  |  |  | O=C(NC1(C(=O)O)Cc2ccccc2C1)c1ccc(Cl)c(-c2ccc(-c3ccccc3)cc2)c1 [Compound 320, 2-[(6″-Chloro-[1,1′;4′,1″]terphenyl-3″-carbonyl)-amino]-indan-2-carboxylic acid] |  | some final growth inhibition | pIC50 (MCF-7 [3]): ~4.52; inhibition of Topo IIα decatenation (human Topo IIα): complete inhibition; stabilization of the covalent complex in Topo I reactions (Topo I): no apparent stabilization of the covalent complex; stabilization of the TopoIIα-DNA covalent complex (linear form of minicircle) [4]: does not stabilize the covalent complex; initial tumor growth delay (NCI-H460 [5]): no initial growth delay; survival and side effects, acute toxicity ([6]; 10 mg/Kg (low dose)): all the low dose mice survived with no visible side effects; survival, acute toxicity ([6]; 100 mg/Kg (high dose)): Two mice in the high dose group survived; shift in potency, resistant line MCF-7/ADR versus parent line MCF-7 (MCF-7/ADR): no shift in potency; survival, MTD study [7]: All other animals survived to the end of the study; survival, MTD study ([7]; 30 mg/kg): Two animals in the highest dose group survived with one animal dying after 3 injections
 |  |  |  |  |  |  |  |  |  |  |  | O=C(O)C1c2ccccc2CCN1C(=O)c1ccc(Cl)c(-c2ccc(-c3ccccc3)cc2)c1 (stereo not shown) [Compound 337, 2-(6″-Chloro-[1,1′;4′,1″]terphenyl-3″-carbonyl)-1,2,3,4-tetrahydro-isoquinoline-1-carboxylic acid] |  |  | displacement of EtBr (intercalator) from DNA (calf thymus DNA): lack of intercalator displacement
 |  |  |  |  |  |  |  |  |  |  |  | CN1CCN(c2ccc3[nH]c(-c4ccc5[nH]c(-c6ccc(O)cc6)nc5c4)nc3c2)CC1 [Hoechst 33258] |  |  | IC50 of EtBr displacement (calf thymus DNA): low μM; displacement of EtBr (intercalator) from DNA (calf thymus DNA): clearly demonstrates displacement of EtBr
 |  |  |  |  |  |  |  |  |  |  |  | COc1cccc2c1C(=O)c1c(O)c3c(c(O)c1C2=O)C[C@@](O)(C(=O)CO)C[C@@H]3O[C@H]1C[C@H](N)[C@H](O)[C@H](C)O1 [doxorubicin, reference compound] |  | least efficacy | mobility shift of pBR322 plasmid on gels (pBR322 plasmid): Mobility shifts were seen; inhibition of Topo IIα decatenation (human Topo IIα): partial inhibition; shift in potency, resistant line MCF-7/ADR versus parent line MCF-7 (MCF-7/ADR): 100 fold
 |  |  |  |  |  |  |  |  |  |  |  | COc1cc([C@@H]2c3cc4c(cc3[C@@H](O[C@@H]3O[C@@H]5CO[C@@H](C)O[C@H]5[C@H](O)[C@H]3O)[C@H]3COC(=O)[C@H]23)OCO4)cc(OC)c1O [etoposide] |  | greatest anti-tumor activity | stabilization of the TopoIIα-DNA covalent complex (linear form of minicircle) [4]: the linear form is present; initial tumor growth delay (NCI-H460 [5]): greatest initial growth delay
